{"source": "patent US20250108141A1", "about": "“TOPICAL FORMULATIONS FOR TARGETED DELIVERY OF THERAPEUTICS” (UNM RAINFOREST INNOVATIONS, priority 2023, published 2025)", "key": {"[1]": {"test_system": "HPV16-infected SG3 cells", "test": "MK-8353 treatment of HPV16-infected SG3 cells, immunoblot", "type": "cell-based", "details": "MK-8353 dissolved in Tc, 48 h", "procedure": "The p-ERK1/2 inhibitor MK-8353 (Selleck Chemicals LLC, Houston, TX) was dissolved in 2-(2-ethoxyethoxy)ethanol (Tc) at 5 mM. HPV16-infected SG3 cells were plated in complete medium and then treatments were initiated without active agent or with increasing concentrations of MK-8353 in serum-free medium. At 24 h post treatment, fresh treatments were added and maintained for an additional 24 h. Cells treated for 48 h were lysed with detergent-containing buffer and 50 μg of each sample was analyzed by SDS-PAGE and immunoblot for the proteins of interest including p-ERK1/2, p-Fra1, HPV16 E7, and actin."}, "[2]": {"test_system": "MmuPV1", "test": "MmuPV1-induced tail tumor (wart) model, oral gavage", "type": "in vivo", "details": "oral gavage every 48 hours for four weeks, cobimetinib 7.5 or 15 mg/kg, trametinib 1.0 or 2.0 mg/kg, athymic nude mice", "procedure": "FIG. 3. […] Female Hsd:Athymic Nude-Foxn1^nu mice were infected with 2×10^8 viral genome equivalents (VGE) of MmuPV1 virions. Tumors (warts) were allowed to grow for 6 weeks before randomizing into vehicle or treatment groups (n=6 per group) with each group having an average tumor volume (length×width×height) of approximately 40 mm^3. Mice were dosed by oral gavage treatment every 48 hours for four weeks before harvesting each tumor for histology. (A) Quantification of tail tumor volumes over 32 days of treatment in mice infected with MmuPV1 and treated with vehicle, 7.5 mg/kg cobimetinib, or 15 mg/kg cobimetinib. (B) Quantification of tail tumor volume over 32 days of treatment in mice infected with MmuPV1 and treated with vehicle (same as in FIG. 3A), 1.0 mg/kg trametinib, or 2.0 mg/kg trametinib. Statistical analyses by two-way Anova, Dunnett's T3 test ([…], ** p<0.01). (C) Representative images of tail tumors of a mouse treated with vehicle only. (D) Representative images of tail tumors of a mouse treated with 7.5 mg/kg cobimetinib or 15 mg/kg cobimetinib. (E) Representative images of tail tumors of a mouse treated with 1.0 mg/kg trametinib or 2.0 mg/kg trametinib."}, "[3]": {"test_system": "HPV16-infected SG3 human keratinocytes", "test": "Topical treatment of HPV16-infected 3D organotypic epithelial raft tissues", "type": "cell-based", "details": "TABLE 2 formulations, single topical treatment, 96 hours"}, "[4]": {"test_system": "MmuPV1", "test": "Topical gel treatment of MmuPV1-induced tumors in vivo", "set-up": "species or system mice", "details": "daily topical gel (2.5% HPC, 15%-18% TRANSCUTOL) with trametinib 150 μM-600 μM; starting tumors 145.3 mm^3 to 279.4 mm^3", "experimental": "Mice bearing MmuPV1-induced tumors ranging in volume from 145.3 mm^3 to 279.4 mm^3 were treated daily with a topical gel (2.5% HPC, 15%-18% TRANSCUTOL (Gattefosse SAS, Saint-Priest, France)) containing the MEK inhibitor trametinib (150 μM-600 μM)."}, "[5]": {"test_system": "HPV16-infected SG3 human keratinocytes", "test": "Topical treatment of HPV16-infected 3D organotypic epithelial raft tissues", "type": "cell-based", "procedure": "FIG. 6. […] HPV16-infected (SG3) cells were cultured as raft tissues for 12 days. Duplicate raft tissues were left untreated, or topically treated with 0.5 ml of either vehicle gel (20% Tc, 2.5% HPC in PBS) alone or 30 μM trametinib in vehicle gel for 48 hours. One raft from each duplicate set was collected for total protein extraction for SDS-PAGE and immunoblots (A), the second raft was harvested for tissue fixation, paraffin embedding, and cross-sectioning of tissues for histology (B-J). […] Panels B-D show histology by H&E staining in untreated, vehicle-treated, and 30 μM trametinib-treated rafts. […] Broken lines underscore the basal cell layer.\nFIG. 18. Experiment akin to that in FIG. 6, except that it uses 2.5% HPC and 10% Tc for the vehicle. Drug treatment includes 15 μM trametinib. Experimental groups were treated with the topical formulations for 24 hours or 48 hours before harvesting for immunoblots and tissue sectioning.\nThe experimental protocol used in this example is illustrated in FIG. 5. A semi-solid collagen-fibroblast matrix was created to act as a dermal equivalent (stage 1). HPV16-infected SG3 human keratinocytes (cells) that maintained circular HPV16 genomes extrachromosomally were seeded on the top of the dermal equivalent submerged in growth medium (stage 2). After the HPV-infected keratinocytes grew to confluency (2-3 days), growth medium was removed, and the dermal equivalent was lifted to the air-liquid interface above fresh growth medium (stage 3). Fresh medium was replaced every two days. This allowed the keratinocytes to stratify and differentiate into a multilayered epithelium akin to human skin/mucosa within 10-12 days (Stage 4).\nThe MEK1/2 inhibitor trametinib was dissolved in diethylene glycol monoethyl ether (TRANSCUTOL; Gattefosse SAS, Saint-Priest, France). The trametinib-2-(2-ethoxyethoxy)ethanol solution was combined with hydroxypropyl cellulose (KLUCEL MXF Pharma, 850 kDa), a pharmaceutical grade thermal gelation agent. Formulations of 30 μM trametinib, 20% 2-(2-ethoxyethoxy)ethanol, and 2.5% hydroxypropyl cellulose applied one time to stratified and differentiated HPV16-infected three-dimensional organotypic epithelial “raft” tissues cultured at the air-liquid interface for 12 days. Each treatment was carried out in duplicate. Tissues were harvested daily two to five days post treatment for total protein extraction and histological analyses (FIG. 6). Specifically, each raft tissue was divided in half with a scalpel. One half was subject to total protein extraction, SDS-PAGE and immunoblot; the second half was fixed in 10% neutral buffered formalin, embedded in paraffin, and sectioned ([…]) on to microscope slides. The tissue sections were subject to histology, immunohistochemistry, or in situ hybridization.\nFormulations according to TABLE 2 were prepared. Epithelial raft tissues were prepared as described in Example 1. Each formulation was topically applied to duplicate HPV-infected raft epithelial tissues.\nEach formulation was left on the tissue raft undisturbed for 48 hours. 48 hours after treatment, tissues were harvested for protein extraction and histological analysis as described above.\nIn Example 3, epithelial raft tissues were topically treated in duplicate with formulations including trametinib and 2-(2-ethoxyethoxy)ethanol and analyzed for p-ERK1/2 and E7 protein expression after three days (72 hours). Epithelial raft tissues were prepared as described in Example 1. Formulations were prepared according to TABLE 2. Each epithelial raft tissue was topically treated with one formulation. 72 hours after treatment, epithelial raft tissues were collected for protein extraction."}, "[6]": {"test_system": "HPV16-infected cells established from cervix (W12-E)", "test": "HPV16-infected W12-E 3D organotypic raft tissue, trametinib added systemically", "type": "cell-based", "details": "10 nM trametinib added systemically every 48 hours on days 8, 10, 12", "procedure": "FIG. 2. Histology data showing that HPV16 oncogene transcription and activity is modulated by MEK1/2 activation in 3D organotypic epithelial tissue cultures. HPV16-infected cells established from cervix (W12-E) were cultured as raft tissues for 14 days. Panels A-D are taken from tissues cultured under normal conditions. Panels E-H are images of tissue cultured with 10 ng/mL EGF added systemically (in the cell culture medium below the basal layer and collagen matrix) every 48 hours on days 8, 10, and 12 post raft tissue lifting to the air-liquid interface. Panels I-L are images of tissues cultured with 10 nM trametinib added systemically every 48-hours on days 8, 10, and 12 post raft tissue lifting to the air-liquid interface. Tissues were examined for morphology (Top, H&E staining), phosphorylated ERK1/2 (p-ERK1/2) immunohistochemistry (brown), HPV E6&E7 mRNA in situ hybridization (red), and E7 activity via proxy p16INK4A immunohistochemistry. Broken lines underscore the basal cell layer above the collagen matrix; bars=100 μm."}, "[7]": {"details": "increasing concentrations in serum-free medium"}, "[8]": {"details": "15 μM trametinib in 2.5% HPC and 10% Tc vehicle, 24 hours or 48 hours"}, "[9]": {"details": "TABLE 2 formulations, 30 μM trametinib, single topical treatment, 48 hours"}}, "note": "Entries after “also recorded” stand apart in the source; their conditions may differ."}
{"smiles": "CS[C@@]1(C(=O)Nc2ccc3[nH]nc(-c4ccc(OC(C)C)nc4)c3c2)CCN(CC(=O)N2CC=C(c3ccc(-c4ncn(C)n4)cc3)CC2)C1", "note": "[MK-8353]", "values": [{"measurement": "phosphorylation of ERK1/2 (p-ERK1/2)", "setting": "[1]", "value": "does not necessarily prevent"}, {"measurement": "levels of the HPV16 E7 oncoprotein", "setting": "[1]; [7]", "value": "reduce the levels"}, {"measurement": "p-ERK1/2 activity as measured by p-Fra1 phosphorylation", "setting": "[1]; [7]", "value": "Suppresses"}]}
{"smiles": "O=C(c1ccc(F)c(F)c1Nc1ccc(I)cc1F)N1CC(O)([C@@H]2CCCCN2)C1", "note": "[cobimetinib, (S)-[3,4-Difluoro-2-(2-fluoro-4-iodophenylamino)phenyl][3-hydroxy-3-(piperidin-2-yl)azetidine-1-yl]methanone]", "values": [{"measurement": "tail tumor (wart) volume", "setting": "[2]", "value": "suppresses MmuPV1-induced benign tumor (e.g., wart) growth"}, {"measurement": "tail tumor (wart) volume", "setting": "[2]; listed as Cobimetinib", "value": "suppresses wart growth but did not lead to regression"}]}
{"smiles": "CC(=O)Nc1cccc(-n2c(=O)n(C3CC3)c(=O)c3c(Nc4ccc(I)cc4F)n(C)c(=O)c(C)c32)c1", "note": "[trametinib, N-(3-{3-Cyclopropyl-5-[(2-fluoro-4-iodophenyl)amino]-6,8-dimethyl-2,4,7-trioxo-3,4,6,7-tetrahydropyrido[4,3-d]pyrimidin-1 (2H)-yl}phenyl)acetamide]", "values": [{"measurement": "E7 by immunoblot", "setting": "[3]", "value": "decrease"}, {"measurement": "p-ERK1/2 by immunoblot", "setting": "[3]", "value": "decrease"}, {"measurement": "MmuPV1 tumor volume", "setting": "[4]", "value": "promotes MmuPV1 tumor regression"}, {"measurement": "E6/E7 mRNA detection", "setting": "[5]; [8]", "value": "reduced"}, {"measurement": "p-ERK1/2 protein detection", "setting": "[5]; [8]", "value": "reduced"}, {"measurement": "p-ERK1/2 by immunoblot", "setting": "[5]; 30 μM trametinib, 20% 2-(2-ethoxyethoxy)ethanol, 2.5% HPC gel, applied one time, two days (48 hours) post treatment", "value": "complete suppression; also recorded: reduction in p-ERK1/2 to almost undetectable levels"}, {"measurement": "p-ERK1/2 suppression, later harvests", "setting": "[5]; 30 μM trametinib, 20% Tc, 2.5% HPC gel, applied one time, three to five days post treatment", "value": "sustained"}, {"measurement": "p-ERK1/2 by immunohistochemistry", "setting": "[5]; 30 μM trametinib, 20% Tc, 2.5% HPC gel, 48 hours", "value": "abrogates"}, {"measurement": "HPV16 E6/E7 mRNA by in situ hybridization", "setting": "[5]; 30 μM trametinib, 20% Tc, 2.5% HPC gel, two days post treatment", "value": "complete suppression; also recorded: reduces E6/E7 mRNA to undetectable levels"}, {"measurement": "HPV16 E7 protein by immunoblot", "setting": "[5]; [9]", "value": "suppresses"}, {"measurement": "p-ERK1/2 by immunoblot", "setting": "[5]; [9]", "value": "suppresses"}, {"measurement": "hyperplasia", "setting": "[5]; one-time topical treatment, 30 μM trametinib, 20% Tc, 2.5% HPC", "value": "suppressed"}, {"measurement": "E7 activity (E7 surrogate p16INK4A protein)", "setting": "[6]", "value": "suppresses"}, {"measurement": "MEK activation (p-ERK1/2 immunohistochemistry)", "setting": "[6]", "value": "suppresses"}, {"measurement": "production of E6/E7 mRNA (in situ hybridization)", "setting": "[6]", "value": "suppresses"}, {"measurement": "hyperproliferation", "setting": "[6]; raft tissues cultured 14 days", "value": "suppresses"}, {"measurement": "tail tumor (wart) volume", "setting": "[2]", "value": "leads to tumor regression; also recorded: regression of warts to a smaller size than those originally treated"}]}
